Assay results as given in PubChem BioAssay AID1645848.
≈ marks a conversion by molar mass, not a printed value.

conditions: buffer; pH 7.4; 6.0 h; 150.0 µM

Row | Structure (SMILES) | solubility kinetic [µg/mL]
1 | COc1cccc(N2CCN(c3ncc4c(n3)CCN(Cc3ccc(Br)cc3)C4)CC2)c1 | < 1
2 | O=c1cc(CN2CCCN(c3ccc(C(F)(F)F)cn3)CC2)nc2ccccn12 | > 60
3 | CC(C)(N)C(=O)N[C@H](COCc1ccccc1)C(=O)N1CCC2(CC1)CN(S(C)(=O)=O)c1ccccc12 | > 78
4 | COc1ccc(-c2nc3ccccc3c(=O)n2Cc2ccccc2)cc1COc1ccc(NC(C)=O)cc1 | < 1
5 | CCOc1ccc(CCNC(=O)c2ccnn2Cc2ccccn2)cc1OCC | > 58
6 | O=C(O)CCC(=O)Nc1nc(-c2ccccc2)cs1 | > 41
7 | CC(C)(C)c1ccc(-c2csc(N3CCC(C(N)=O)CC3)n2)cc1 | < 1
8 | Cc1ccc(S(=O)(=O)N(C)c2ccccc2C(=O)Nc2nc(-c3ccccc3)cs2)cc1 | < 1
9 | Fc1cc(Nc2nc(-c3ccncc3)nc3ccccc23)ccc1N1CCCCC1 | < 1
10 | Cc1cnc(-c2ccccc2C(C)C)nc1NCC1CN(c2cccnc2)C1 | 36.3 (≈ 97.2 µM)
11 | Cc1ccc(S(=O)(=O)Nc2cnccc2C(=O)Nc2nc(-c3cc4ccccc4o3)cs2)cc1 | 0.521 (≈ 1.06 µM)
12 | COc1ccc(-n2nc(C)c([C@@H]3C=C[C@@H](NCc4ccc(N(C)C)cc4)C3)c2C)cc1 | 50.3 (≈ 121 µM)
13 | COc1ccc(C(=O)c2sc(Nc3cccc(Cl)c3)nc2N)cc1 | < 1
14 | COCCCNC(=O)c1cc2cc(S(=O)(=O)N(C)C)ccc2n1C | 42.6 (≈ 120 µM)
15 | Oc1ccc2[nH]cc(CCCCN3CC=C(c4ccccc4)CC3)c2c1 | 42.4 (≈ 122 µM)
16 | Cc1ccc(S(=O)(=O)Nc2cnccc2C(=O)Nc2nc(-c3ccccc3F)cs2)cc1 | < 1
17 | COc1cc2c(Oc3ccc(-c4cnc(Nc5ccc(F)cc5)n(C)c4=O)cc3F)ccnc2cc1OCCCN1CCOCC1 | < 1
18 | COc1cccc(CNc2ccc(S(=O)(=O)Nc3nccs3)cc2)c1 | 27.2 (≈ 72.5 µM)
19 | NC(=O)C1CCN(c2nc(-c3ccc4ccccc4c3)cs2)CC1 | 3.67 (≈ 10.9 µM)
20 | O=C1CCCC2=C1C(c1[nH]ncc1Br)N=C(Nc1nc3ccccc3o1)N2 (centres undefined) | < 1
21 | CC(=O)Nc1cccc(-c2nc(-c3c(C)noc3C)cc3c2cc(-c2ccccc2)n3C)c1 | < 1
22 | COc1cccc(CNc2ccc(S(=O)(=O)Nc3cc(C)on3)cc2)c1O | > 58
23 | Nc1nc2c(s1)C(c1ccc(F)cc1F)CC(=O)N2 (centres undefined) | 23.2 (≈ 82.4 µM)
24 | COC(=O)c1cc2occc2n1Cc1nc(-c2ccc(C)cc2)oc1C | < 1
25 | O=C(O)CCNc1cc(N2CCc3ccccc3CC2)nc(-c2cccnc2)n1 | > 58

Row | Structure (SMILES) | solubility kinetic [µg/mL]
26 | COc1cccc(-c2csc(NC(=O)c3ccncc3NS(=O)(=O)c3ccc(C)cc3)n2)c1 | > 71
27 | COc1ccc(-c2csc(NC(=O)c3ccccc3NS(=O)(=O)c3ccc(C)cc3)n2)cc1 | < 1
28 | Cc1c(Cl)cccc1NC(=O)CNS(=O)(=O)c1cccs1 | > 51
29 | CCC(=O)NC(c1cccs1)c1cc([N+](=O)[O-])c2cccnc2c1O (centres undefined) | > 53
30 | CN1C(=O)c2ccccc2[S@](=O)c2ccc(C(=O)NCCN3CCCC3)cc21 | > 59
31 | COc1ccc(NC(=O)c2[nH]c(C)c(C(C)=O)c2C)cc1S(=O)(=O)Nc1cccc(C#N)c1 | 2.28 (≈ 4.9 µM)
32 | O=C(NC1CCCc2c1[nH]c1ccccc21)c1ccccc1 (centres undefined) | 7.97 (≈ 27.4 µM)
33 | CN(Cc1cccs1)c1ncnc2ccc(-c3ccc4c(c3)OCO4)cc12 | < 1
34 | Cc1cc(-c2nnc3n2CCCCC3)c(C)n1-c1cccnc1 | 32.5 (≈ 106 µM)
35 | C[C@@]12O[C@@H](C[C@]1(O)CO)n1c3ccccc3c3c4c(c5c6ccccc6n2c5c31)CNC4=O | 15.2 (≈ 34.6 µM)
36 | COc1cccc(CNC(=O)CCCn2nc(C)c3c(C)n(-c4ccc(C)cc4)nc3c2=O)c1OC | 2.58 (≈ 5.26 µM)
37 | COC(=O)CNC(=O)c1nc(-c2ccccc2OC)c2ccccn12 | > 60
38 | COc1ccc(-n2nc(C3CCCN(C(=O)c4ccccc4)C3)[nH]c2=O)cc1 (centres undefined) | > 56
39 | CCN(CCO)CCCOc1ccc2c(Nc3cc(CC(=O)Nc4cccc(F)c4)[nH]n3)ncnc2c1 | > 75
40 | O=C(Nc1cccc(C(F)(F)F)c1)Nc1cc(S(=O)(=O)NC2CC2)ccc1-c1ccsc1 | < 1
41 | Cc1ccc(S(=O)(=O)Nc2cnccc2C(=O)Nc2ccc(-c3nn[nH]n3)cc2)cc1 | > 64
42 | Cc1ccc(-c2cc(C(=O)Nc3ccc(-c4nn[nH]n4)cc3)c3ccccc3n2)cc1C | 7.58 (≈ 18 µM)
43 | COc1cccc(-n2ncc3c2CCCC3NC(=O)c2ccccn2)c1 (centres undefined) | > 51
44 | O=S(=O)(c1ccccc1)N1CCCCC1CCc1ccccc1 (centres undefined) | 4.39 (≈ 13.3 µM)
45 | Nc1c(C(=O)N2CCCCC2)sc(=S)n1-c1ccccc1 | 9.32 (≈ 29.2 µM)
46 | Cn1c(=O)c2[nH]c(=O)[nH]c2n(C)c1=O | > 29
47 | O=C(Cc1ccc2ccccc2c1)Nc1ccc(S(=O)(=O)Nc2nccs2)cc1 | 0.228 (≈ 0.538 µM)
48 | Cc1ccc(C(N)=O)cc1Nc1nccc(-c2cn(C(C)C)c3cnccc23)n1 | 45.2 (≈ 117 µM)
49 | CN(C)CCCn1cc(C2=C(c3c[nH]c4ccccc34)C(=O)NC2=O)c2ccccc21 | > 41
50 | COc1cc(-c2cn(C)c(=O)c3cnccc23)c(OC)cc1CN(C)C | > 52

Row | Structure (SMILES) | solubility kinetic [µg/mL]
51 | Cc1cc(C)nc(NC(=S)N2CCN(c3cccc([N+](=O)[O-])c3)CC2)c1 | 4.04 (≈ 10.9 µM)
52 | CC(C)Oc1cccc(C2CC(=O)Nc3cc4c(cc32)OCO4)c1 (centres undefined) | 1.53 (≈ 4.7 µM)
53 | Cc1cccc(S(=O)(=O)c2cn(Cc3ccccc3)c3cc(N4CCCCC4C)c(F)cc3c2=O)c1 (centres undefined) | < 1
54 | Cc1ccc(S(=O)(=O)Nc2cnccc2C(=O)Nc2ccc(-n3cncn3)cc2)cc1 | > 64
55 | CCCN1C(CC(C)C)=NS(=O)(=O)c2cc(NC(=O)c3cccs3)ccc21 | < 1
56 | CCn1cc(C(=O)O)c(=O)c2cnc(N3CCN(C(=S)Nc4ccccc4)CC3)nc21 | > 65
57 | Fc1ccc(Nc2nc(-c3ccccc3)cc(-c3ccncc3)n2)cc1F | < 1
58 | Cc1cc(C)cc(NS(=O)(=O)c2ccc3[nH]cc(C(=O)NCc4ccco4)c(=O)c3c2)c1 | 2.87 (≈ 6.35 µM)
59 | O=[N+]([O-])c1cccnc1N/N=C/c1ccccc1O | < 1
60 | CC(C)Oc1cccc(-c2ccnc(N3CCC(C(N)=O)CC3)n2)c1 | 8.28 (≈ 24.3 µM)
61 | Cc1ccc(S(=O)(=O)Nc2ccccc2C(=O)Nc2ccc(-c3ccccc3)nc2)cc1 | < 1
62 | Cn1nnnc1Sc1ncnc2scc(-c3cc4ccccc4o3)c12 | < 1
63 | CCOC(=O)C1CCN(c2nc(-c3ccc(Br)cc3)cs2)CC1 | < 1
64 | O=C1CCc2ccc(OCCCCN3CCN(c4cccc(Cl)c4Cl)CC3)cc2N1 | < 1
65 | COc1ccc2[nH]c(=O)c(-c3noc(-c4ccccc4)n3)cc2c1 | < 1
66 | CC1=C(C(=O)Nc2nnc(-c3ccccc3)s2)C(c2[nH]ncc2Cl)N=C(Nc2nc3ccccc3o2)N1 (centres undefined) | < 1
67 | Cc1cccc(-n2cnc3cc(C(=O)N4CCCC(C(F)(F)F)C4)ccc32)c1 (centres undefined) | 45.3 (≈ 117 µM)
68 | COc1ccc(O)c2c(=O)c3c(OC)cc4c(c3oc12)C1C=COC1O4 (centres undefined) | < 1
69 | COC(=O)c1ccc(Nc2nc(-c3ccncc3)nc3ccccc23)cc1OC | < 1
70 | COCCNC(=O)[C@H]1C[C@H](Oc2ccccc2)CN1Cc1ccc2[nH]ccc2c1 | 17.1 (≈ 43.5 µM)
71 | Clc1ccc2ncc(-c3cccc(NC4CCNC4)n3)n2c1 (centres undefined) | > 46
72 | Cc1ccccc1C(=O)n1ccc2cc(-c3nc(NC(=O)Cc4ccc5c(c4)OCO5)sc3C)ccc21 | < 1
73 | COc1cc2ncnc(Oc3cccc(NC(=O)Nc4cc(C(C)(C)C(F)(F)F)on4)c3)c2cc1OC | 8.62 (≈ 16.7 µM)
74 | COc1cccc(CNc2ccc(S(=O)(=O)Nc3nc4ccccc4o3)cc2)c1O | > 63
75 | COc1cc([C@@H](CC(=O)O)c2ccc(C)c(CN3C[C@@H](C)Oc4ccccc4S3(=O)=O)c2)cc2nnn(C)c12 | > 81

Row | Structure (SMILES) | solubility kinetic [µg/mL]
76 | Cc1cccc2c(C(=O)O)cc(-c3cccs3)nc12 | > 40
77 | COc1ccc(-c2cc3nccn3c(Nc3ncccc3C(N)=O)n2)cc1OC | 24.2 (≈ 62.1 µM)
78 | Oc1c(CN2CCN(c3ccccn3)CC2)cc(Cl)c2cccnc12 | 11.4 (≈ 32.1 µM)
79 | O=C1Nc2ccc(-c3cccc(C(F)(F)F)c3)cc2C(=O)N2CCN(C(=O)COc3ccccc3)C[C@H]12 | < 1
80 | O=[S+]([O-])(Nc1ccc(C2CCNCC2)cc1)c1ccc(NCc2ccc(Br)cc2O)cc1 | 12.8 (≈ 24.8 µM)
81 | Cc1ccc(N2CCC(CNc3nc(-c4ccccc4C(C)C)ncc3F)CC2)cn1 | 7.65 (≈ 18.2 µM)
82 | NC(CO)(CO)CCc1ccc(Sc2cccc(OCc3ccccc3)c2)cc1Cl | < 1
83 | COCC(C)Nc1ncnc2c1cnn2-c1ccc(C)c(C)c1 (centres undefined) | 5.58 (≈ 17.9 µM)
84 | Cc1ccc(-c2cc(C(=O)NCc3ccc(S(N)(=O)=O)cc3)c3ccccc3n2)cc1C | < 1
85 | Cc1nc(Nc2ncc(C(=O)Nc3c(C)cccc3Cl)s2)cc(N2CCN(CCO)CC2)n1 | 25.6 (≈ 52.4 µM)
86 | CCOc1ccc(CCNC(=O)c2cccc(C(=O)c3ccccc3)c2)cc1OCC | 3.12 (≈ 7.47 µM)
87 | CCOc1ccc(/C=C/c2nc3ccccc3n2S(=O)(=O)c2cccc(Cl)c2)cc1 | 0.035 (≈ 0.0797 µM)
88 | COc1ccccc1CN1CCNc2cc(Nc3ccccc3)ncc2C1 | > 80
89 | Cc1cc(N)c2cc(NC(=O)Nc3ccc4nc(C)cc(N)c4c3)ccc2n1.Cl.Cl | < 1
90 | COc1ccc(-c2ccc3ncc(Nc4ccncc4)n3n2)cc1OC | 31.9 (≈ 91.9 µM)
91 | Cn1ccc2c(C(=O)NCc3cccnc3)nc(-c3ccc(CO)cc3)cc21 | > 82
92 | COc1cc2c(cc1NC(=O)COc1ccc(Cl)cc1)oc1ccccc12 | < 1
93 | CNc1cc(-c2nc(Nc3ccc(F)c(F)c3)c3ccccc3n2)ccn1 | < 1
94 | Cc1ccc(OCCn2c(CCNC(=O)N3CCCCC3)nc3ccccc32)cc1 | 9.07 (≈ 22.3 µM)
95 | O=C(O)c1ccc(O)c2ncc(N3CCCN(CCc4cccc5ccccc45)CC3)cc12 | 21.4 (≈ 48.4 µM)
96 | O=C(Nc1nc(-c2ccccc2)cs1)c1ccncc1NS(=O)(=O)c1ccccc1Cl | 20 (≈ 42.4 µM)
97 | O=C(Cc1ccc(Cl)c(Cl)c1)Nc1ccc(S(=O)(=O)Nc2nncs2)cc1 | > 65
98 | O=c1n(-c2ccc(Cl)cc2)nc2n1CCN(Cc1ccc(C(F)(F)F)cc1)C2 | < 1
99 | COc1ccc(S(=O)(=O)N2CCOCC2)cc1NC(=O)c1cccc(-n2cccc2)c1 | 6.13 (≈ 13.9 µM)
